Experimental data as given in US20220017512A1 (SHANGHAI ENNOVABIO PHARMACEUTICALS CO., LTD., priority 2018, published 2022).
Structures can show the parent of a compound that is named as a salt.

Legend:
[1] = target: T1, recombinant human TRKA (G595R) (Homo sapiens, UniProt P04629, G595R); test: In vitro activity test on mutant TRKA (G595R) (HTRF KinEASE TK); type: biochemical; conditions: 4.5 μM ATP, 30 min
T1 construct: purchased SignalChem
How it was run: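 HTRF KinEASE TK format: 0.12 ng/μL recombinant TRKA (G595R), 1 μM biotinylated TK substrate, 4.5 μM ATP, 5 mM MgCl2, 1 mM DTT, 1% DMSO, 30 min at room temperature; detection overnight. IC50 from 10-point 4-fold series (1 μM to 0.004 nM, duplicates), 665/620 ratio, 4-parameter fit.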

[2] = target: T2, Recombinant human TRKB (Homo sapiens, UniProt Q16620); test: In vitro activity test on TRKB kinase (HTRF KinEASE TK); type: biochemical; conditions: 4.77 μM ATP, 50 min
T2 construct: purchased Carna Biosciences
How it was run: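 Recombinant human TRKB (0.037 ng/μL) phosphorylated 1 μM biotinylated TK substrate at 4.77 μM ATP, 5 mM MgCl2, 1% DMSO, 50 min at room temperature; compounds 1 μM–0.05 nM. HTRF KinEASE detection overnight; 665/620 ratio converted to inhibition and IC50 from 4-parameter fit.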

[3] = target: T3, Recombinant human TRKA (Homo sapiens, UniProt P04629); test: In vitro activity test on TRKA kinase (HTRF KinEASE TK); type: biochemical; conditions: 14.68 μM ATP, 40 min
T3 construct: purchased Carna Biosciences
How it was run: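 Reaction: 0.2 ng/μL TRKA, 1 μM biotinylated TK substrate, 14.68 μM ATP, 5 mM MgCl2, 1 mM DTT, 1% DMSO, 40 min at room temperature. Compounds tested at 1 μM to 0.05 nM (10-point, 3-fold, duplicate). HTRF 665/620 ratio converted to % inhibition versus no-compound control; IC50 by 4-parameter fit.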

[4] = target: T4, Recombinant human TRKC (Homo sapiens, UniProt Q16288); test: In vitro activity test on TRKC kinase (HTRF KinEASE TK); type: biochemical; conditions: 25.64 μM ATP, 40 min
T4 construct: purchased Carna Biosciences
How it was run: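 Recombinant human TRKC (0.037 ng/μL) with 1 μM biotinylated TK substrate, 25.64 μM ATP, 5 mM MgCl2, 1 mM DTT, 40 min at room temperature; compound 1 μM to 0.05 nM, 1% DMSO. HTRF 665/620 ratio after overnight detection; IC50 from 4-parameter fit.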

[5] = Pharmacokinetics experiment in mice; type: in vivo, ICR mice; conditions: mouse, 5 mg/kg; for Cmax / half-life / AUC(0-t): ICR, plasma, po; for AUC(0-t) / F: p.o.; for AUC(0-t): read-out: AUC0-24 hr
Procedure: Biological Test Example 6: Pharmacokinetics Experiment of Small Molecular Inhibitors of the Present Invention in Mice
Tested compounds were administered to ICR mice via intravenous administration (IV) and para-oral (PO) administration, and blood samples were taken at different time points. The concentration of the tested article in mouse plasma was measured by LC-MS/MS, and relevant parameters were calculated. Specifically, a desired amount of a compound to be tested was taken and formulated in 5% DMSO+10% Solutol+85% injection water to form a solution at desired concentration for intravenous administration or para-oral administration. Animals were about 6-8 weeks old when the administration experiment started. Blood collection time for intravenous administration: 0.083 h, 0.25 h, 0.5 h, 1 h, 2 h, 4 h, 8 h, and 24 h after administration. Blood collection time for oral administration: 0.25 h, 0.5 h, 1 h, 2 h, 4 h, 6 h, 8 h and 24 h after administration. The biological sample analysis method and sample detection method were established. The pharmacokinetic parameters were calculated using Phoenix Winnonlin 7.0 software according to plasma concentration data at different time points, such as AUC(0-t), AUC(0-∞), T½, Cmax, Tmax, and MRT.

[6] = target: T5, recombinant human TRKA (G667C) (Homo sapiens, UniProt P04629, G667C); test: In vitro activity test on mutant TRKA (G667C) (HTRF KinEASE TK); type: biochemical; conditions: 5.5 μM ATP, 30 min
T5 construct: purchased SignalChem
How it was run: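 HTRF KinEASE TK format with recombinant human TRKA G667C (0.026 ng/μL), 1 μM biotinylated TK substrate, 5.5 […] ATP, 5 mM MgCl2, 1 mM DTT, 1% DMSO; 30 min at room temperature. Detection overnight; 665/620 ratio gives % inhibition, IC50 from 4-parameter fit over 10 doses (1 μM–0.004 nM).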

T3 sequence (P04629 33-796): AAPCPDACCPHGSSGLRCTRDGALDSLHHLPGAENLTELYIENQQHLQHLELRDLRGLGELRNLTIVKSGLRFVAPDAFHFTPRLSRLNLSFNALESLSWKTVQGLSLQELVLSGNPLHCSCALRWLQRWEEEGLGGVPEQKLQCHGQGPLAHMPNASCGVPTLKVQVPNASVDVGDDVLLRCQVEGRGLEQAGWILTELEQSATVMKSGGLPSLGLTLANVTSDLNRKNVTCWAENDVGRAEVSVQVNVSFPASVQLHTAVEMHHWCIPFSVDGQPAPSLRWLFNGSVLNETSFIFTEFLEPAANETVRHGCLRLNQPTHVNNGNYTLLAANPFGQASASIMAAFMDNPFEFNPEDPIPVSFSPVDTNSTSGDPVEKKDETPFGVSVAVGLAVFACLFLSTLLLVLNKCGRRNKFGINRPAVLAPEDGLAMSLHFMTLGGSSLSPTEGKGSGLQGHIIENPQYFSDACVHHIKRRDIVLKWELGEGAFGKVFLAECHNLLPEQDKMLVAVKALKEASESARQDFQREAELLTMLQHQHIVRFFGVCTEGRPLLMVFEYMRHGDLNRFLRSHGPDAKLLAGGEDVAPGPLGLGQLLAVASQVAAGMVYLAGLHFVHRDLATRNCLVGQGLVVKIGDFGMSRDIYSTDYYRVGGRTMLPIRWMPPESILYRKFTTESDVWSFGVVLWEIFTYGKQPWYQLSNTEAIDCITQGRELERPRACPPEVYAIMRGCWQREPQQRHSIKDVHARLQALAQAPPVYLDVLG
T5 sequence (P04629 33-796 G667C): as the sequence (P04629 33-796) above, with G635C counted along it
T1 sequence (P04629 33-796 G595R): as the sequence (P04629 33-796) above, with G563R counted along it
T2 sequence (Q16620 32-822): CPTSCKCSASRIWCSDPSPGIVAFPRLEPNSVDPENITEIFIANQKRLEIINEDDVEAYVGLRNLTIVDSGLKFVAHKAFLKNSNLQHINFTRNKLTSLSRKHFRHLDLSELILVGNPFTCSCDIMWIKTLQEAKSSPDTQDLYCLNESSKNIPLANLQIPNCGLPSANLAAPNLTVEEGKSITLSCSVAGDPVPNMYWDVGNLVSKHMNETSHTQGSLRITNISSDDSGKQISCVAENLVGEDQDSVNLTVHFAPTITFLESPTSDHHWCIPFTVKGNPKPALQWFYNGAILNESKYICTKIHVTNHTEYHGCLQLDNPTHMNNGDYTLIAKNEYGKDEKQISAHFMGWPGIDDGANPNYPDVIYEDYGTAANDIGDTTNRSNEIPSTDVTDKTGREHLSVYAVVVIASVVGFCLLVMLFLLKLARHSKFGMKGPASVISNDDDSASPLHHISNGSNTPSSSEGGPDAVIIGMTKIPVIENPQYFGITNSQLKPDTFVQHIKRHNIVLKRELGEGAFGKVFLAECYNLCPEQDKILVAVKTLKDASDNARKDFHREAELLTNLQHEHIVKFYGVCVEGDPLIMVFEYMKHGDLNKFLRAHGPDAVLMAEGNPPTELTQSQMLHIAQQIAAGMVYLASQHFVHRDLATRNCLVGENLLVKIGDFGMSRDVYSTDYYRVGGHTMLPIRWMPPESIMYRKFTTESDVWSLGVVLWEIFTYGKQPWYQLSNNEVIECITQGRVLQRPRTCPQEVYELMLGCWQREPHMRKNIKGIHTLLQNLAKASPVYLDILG
T4 sequence (Q16288 32-839): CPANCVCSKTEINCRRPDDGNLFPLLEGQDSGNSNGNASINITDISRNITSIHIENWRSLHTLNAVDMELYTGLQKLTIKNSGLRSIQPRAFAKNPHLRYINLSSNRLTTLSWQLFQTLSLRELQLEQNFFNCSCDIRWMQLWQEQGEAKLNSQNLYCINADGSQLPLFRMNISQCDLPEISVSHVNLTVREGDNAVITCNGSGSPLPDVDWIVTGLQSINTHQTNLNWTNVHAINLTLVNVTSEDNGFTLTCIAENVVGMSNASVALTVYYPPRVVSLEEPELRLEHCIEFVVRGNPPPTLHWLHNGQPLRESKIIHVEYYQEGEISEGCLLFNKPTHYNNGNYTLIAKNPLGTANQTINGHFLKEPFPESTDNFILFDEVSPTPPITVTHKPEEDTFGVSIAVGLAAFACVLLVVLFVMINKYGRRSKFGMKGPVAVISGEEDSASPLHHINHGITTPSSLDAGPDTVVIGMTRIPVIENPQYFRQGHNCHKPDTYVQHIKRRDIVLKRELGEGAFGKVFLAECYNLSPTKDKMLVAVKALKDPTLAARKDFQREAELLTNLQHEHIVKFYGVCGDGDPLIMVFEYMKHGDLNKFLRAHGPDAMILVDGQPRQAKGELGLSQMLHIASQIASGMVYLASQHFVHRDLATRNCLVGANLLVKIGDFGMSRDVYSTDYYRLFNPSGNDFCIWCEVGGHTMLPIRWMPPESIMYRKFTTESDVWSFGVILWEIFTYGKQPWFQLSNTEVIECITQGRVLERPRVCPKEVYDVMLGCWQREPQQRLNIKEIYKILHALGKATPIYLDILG

| Compound | IC50 [1] [nM] | IC50 [2] [nM] | IC50 [3] [nM] | IC50 [4] [nM] | Cmax [5] [ng/mL] | half-life [5] [h] | AUC(0-t) [5] [ng·h/mL] | F [5] [%] | IC50 [6] [nM] |
| --- | --- | --- | --- | --- | --- | --- | --- | --- | --- |
| Fc1ccc(F)c([C@H]2C[C@H](F)CN2c2ccc3ncc(Cl)c(-c4cnn(C5CCNCC5)c4)c3n2)c1 [Example 16, 7-chloro-2-((2R,4S)-2-(2,5-difluorophenyl)-4-fluoropyrrolidin-1-yl)-8-(1-(piperidin-4-yl)-1H-pyrazol-4-yl)-1,5-naphthyridine] | < 10 | < 1 | < 1 | < 1 | 714 | 2.34 | 3230 | 107 | < 1 |
| Fc1ccc(F)c([C@H]2C[C@H](F)CN2c2ccc3ncc(F)c(-c4cnn(C5CCNCC5)c4)c3n2)c1 [Example 20] | < 1 | < 1 | < 1 | < 1 | 448 | 2.82 | 2700 | 144 | < 1 |
| O=C(Nc1c(Cl)cnc2ccc(N3C[C@@H](F)C[C@@H]3c3cc(F)ccc3F)nc12)N1CC[C@H](O)C1 [Example 49, (S)-N-(3-Chloro-6-((2R,4S)-2-(2,5-difluorophenyl)-4-fluoropyrrolidin-1-yl)-1,5-naphthyridin-4-yl)-3-hydroxypyrrolidin-1-carboxamide] | < 10 | < 1 | < 1 | < 10 | – | – | – | – | < 10 |
| CN(C)S(=O)(=O)n1cc(-c2c(Cl)cnc3ccc(N4C[C@@H](F)C[C@@H]4c4cc(F)ccc4F)nc23)cn1 [Example 31] | < 10 | < 10 | < 1 | < 10 | – | – | – | – | < 100 |
| O=C(Nc1ccnc2ccc(N3C[C@@H](F)C[C@@H]3c3cc(F)ccc3F)nc12)N1CC[C@H](O)C1 [Example 26, (S)—N-(6-((2R,4S)-2-(2,5-difluorophenyl)-4-fluoropyrrolidin-1-yl)-1,5-naphthyridin-4-yl)-3-hydroxypyrrolidin-1-carboxamide] | < 1 | < 1 | < 1 | < 1 | – | – | – | – | < 1 |
| CS(=O)(=O)n1cc(-c2c(Cl)cnc3ccc(N4C[C@@H](F)C[C@@H]4c4cc(F)ccc4F)nc23)cn1 [Example 25, 7-chloro-2-((2R,4S)-2-(2,5-difluorophenyl)-4-fluoropyrrolidin-1-yl)-8-(1-(methylsulfonyl)-1H-pyrazol-4-yl)-1,5-naphthyridine] | < 1 | < 1 | < 10 | < 1 | – | – | – | – | < 10 |
| OC[C@@H](O)CN1CCC(n2cc(-c3c(Cl)cnc4ccc(N5C[C@@H](F)C[C@@H]5c5cc(F)ccc5F)nc34)cn2)CC1 [Example 44, (S)-3-(4-(4-(3-chloro-6-((2R,4S)-2-(2,5-difluorophenyl)-4-fluoropyrrolidin-1-yl)-1,5-naphthyridin-4-yl)-1H-pyrazol-1-yl)piperidin-1-yl)propane-1,2-diol] | < 10 | < 1 | < 1 | < 1 | – | – | – | – | < 1 |
| Fc1ccc(F)c([C@H]2C[C@H](F)CN2c2ccc3ncc(F)c(-c4noc(C5CCNCC5)n4)c3n2)c1 [Example 73, 3-(6-((2R,4S)-2-(2,5-difluorophenyl)-4-fluoropyrrolidin-1-yl)-3-fluoro-1,5-naphthyridin-4-yl)-5-(piperidin-4-yl)-1,2,4-oxadiazole] | < 10 | < 10 | < 1 | < 10 | – | – | – | – | < 10 |
| Fc1ccc(F)c([C@H]2C[C@H](F)CN2c2ccc3ncnc(-n4cc(C5CCNCC5)cn4)c3n2)c1 [Example 78, 6-((2R,4S)-2-(2,5-difluorophenyl)-4-fluoropyrrolidin-1-yl)-4-(4-(piperidin-4-yl)-1H-pyrazol-1-yl)pyrido[3,2-d]pyrimidine] | < 1 | < 1 | < 1 | < 1 | – | – | – | – | < 10 |
| CC(C)(O)Cn1cc(-c2c(Cl)cnc3ccc(N4C[C@@H](F)C[C@@H]4c4cc(F)ccc4F)nc23)cn1 [Example 35, 1-(4-(3-chloro-6-((2R,4S)-2-(2,5-difluorophenyl)-4-fluoropyrrolidin-1-yl)-1,5-naphthyridin-4-yl)-1H-pyrazol-1-yl)-2-methylpropan-2-ol] | < 10 | < 1 | < 1 | < 1 | – | – | – | – | < 10 |
| Fc1ccc(F)c([C@H]2C[C@H](F)CN2c2ccc3ncnc(-c4cnn(CC5CNC5)c4)c3n2)c1 [Example 59, 4-(1-(azetidin-3-ylmethyl)-1H-pyrazol-4-yl)-6-((2R,4S)-2-(2,5-difluorophenyl)-4-fluoropyrrolidin-1-yl)pyrido[3,2-d]pyrimidine HCOOH salt] | < 10 | < 50 | < 1 | < 1 | – | – | – | – | < 10 |
| Fc1ccc(F)c([C@H]2CCCN2c2ccc3ncc(F)c(-c4cnn(C5CNC5)c4)c3n2)c1 [Example 28, (R)-8-(1-(azetidin-3-yl)-1H-pyrazol-4-yl)-2-(2-(2,5-difluorophenyl)pyrrolidin-1-yl)-7-fluoro-1,5-naphthyridine] | < 10 | < 10 | < 10 | < 10 | – | – | – | – | < 10 |
| Fc1ccc(F)c([C@H]2C[C@H](F)CN2c2ccc3ncnc(-c4cnn(C5CCNCC5)c4)c3n2)c1 [Example 46] | < 1 | < 1 | < 1 | < 1 | – | – | – | – | < 1 |
| CC1(C)CC(n2cc(-c3ccnc4ccc(N5CCC[C@@H]5c5cc(F)ccc5F)nc34)cn2)CCN1 (stereo partly drawn) [Example 17, 2-((R)-2-(2,5-difluorophenyl)pyrrolidin-1-yl)-8-(1-(2,2-dimethylpiperidin-4-yl)-1H-pyrazol-4-yl)-1,5-naphthyridine] | < 10 | < 10 | < 1 | < 10 | – | – | – | – | < 50 |
| CN1CCC(n2cc(-c3c(Cl)cnc4ccc(N5C[C@@H](F)C[C@@H]5c5cc(F)ccc5F)nc34)cn2)CC1 [Example 43, 7-Chloro-2-((2R,4S)-2-(2,5-difluorophenyl)-4-fluoropyrrolidin-1-yl)-8-(1-(1-methylpiperidine-4-yl)-1H-pyrazol-4-yl)-1,5-naphthyridine] | < 10 | < 1 | < 1 | < 1 | – | – | – | – | < 1 |
| Fc1ccc(F)c([C@H]2C[C@H](F)CN2c2ccc3ncc(Cl)c(-c4ccn(C5CCNCC5)c4)c3n2)c1 [Example 48, 7-chloro-2-((2R,4S)-2-(2,5-difluorophenyl)-4-fluoropyrrolidin-1-yl)-8-(1-(piperidin-4-yl)-1H-pyrrol-3-yl)-1,5-naphthyridine] | < 10 | < 1 | < 1 | < 1 | – | – | – | – | < 10 |
